Data taken from PMC11892739, “Site-specific molecular glues for the 14-3-3/Tau pS214 protein–protein interaction via reversible covalent imine tethering” (RSC Medicinal Chemistry, 2025).

Target: T1, 14-3-3ζ/Tau pS2 peptide (Homo sapiens, UniProt P63104)
T1 construct: made in house; host or cells: NiCo21 (DE3) E. coli
T1 sequence (P63104 1-245): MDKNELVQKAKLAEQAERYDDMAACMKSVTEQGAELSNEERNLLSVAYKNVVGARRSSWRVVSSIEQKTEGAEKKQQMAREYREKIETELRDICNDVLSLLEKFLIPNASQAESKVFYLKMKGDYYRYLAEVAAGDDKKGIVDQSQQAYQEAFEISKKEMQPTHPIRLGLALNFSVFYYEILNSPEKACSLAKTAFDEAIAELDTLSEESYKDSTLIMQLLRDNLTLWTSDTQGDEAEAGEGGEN
Test: Differential scanning fluorimetry of 14-3-3 with Tau pS2 peptide and compounds
Type: binding
Settings: compound 30-fold compared to 14-3-3ζ (75 μM), Tau pS2 peptide 25 μM, 14-3-3 2.5 μM; read-out: additional increase in melting temperature relative to the binary 14-3-3ζ/Tau pS2 peptide system
Experimental: Fig. 3 a Dose–response fluorescence anisotropy data of compound titrations to 10 nM FITC-labeled Tau pS2 peptide and 100 nM 14-3-3ζ. […] Mean of three individually performed experiments (see ESI ^† Fig. S8 for the protein titrations). e Differential scanning fluorimetry assay results. Identified melting temperatures (Tm) of 14-3-3γ alone (2.5 μM) and in the presence of Tau pS2 peptide (25 μM) and additionally with selected compounds (75 μM).
As an orthogonal method to profile the PPI stabilizing activity of selected compounds, differential scanning fluorimetry (DSF) assays were performed (Fig. 3e). […] Upon addition of compounds (1, 11, 13–14, and 20–22) to this PPI complex (30-fold compared to 14-3-3ζ), an additional increase in melting temperature between 0.9 °C and 2.1 °C was observed relative to the binary 14-3-3ζ/Tau pS2 peptide system. These observations are in agreement with the stabilization observed in the FA data and strongly testify to the molecular glue effect of our compound, by enhancing the stability of the PPI complex. […]
chromatography (HisTrap high performance cartridges, Cytiva). Typically two 5 mL columns were used for a 2 L culture in which the lysate was loaded on the column, washed with 10 CV wash buffer (50 mM Hepes, pH 8.0, 300 mM NaCl, 25 mM imidazole, 2 mM βME), and eluted with several fractions (2-4 CV) of elution buffer (50 mM Hepes, pH 8.0, 300 mM NaCl, 250 mM imidazole, 2 mM βME). Fractions containing the 14-3-3 protein were combined and dialyzed into 25 mM HEPES pH 8.0, 200 mM NaCl, 10 mM MgCl2, 2 mM βME, followed by dialysis into 25 mM HEPES, 100 mM NaCl, 10 mM MgCl2, 500 μM TCEP (adjusted to pH 8.0). Dialyzed protein was concentrated to ∼40 mg/mL, analyzed by Q -Tof LC/MS, and aliquots were flash -frozen for storage at −80 °C. For 14 -3-3σ∆c, 1 mg TEV per 100 mg purified protein was added to the dialysis to remove the purification tag. The cleaved sample was then again loaded on a 10 mL Ni-NTA column to separate the cleaved product from the expression tag and residual uncleaved protein. The flowthrough was loade d on a Superdex 75 pg 16/60 size exclusion column (GE Life Sciences) using 25 mM HEPES, 100 mM NaCl, 10 mM MgCl2, 500 μM TCEP (adjusted to pH = 8.0) as running buffer. Fractions containing the 14 -3-3 protein were pooled and concentrated to ∼60 mg/mL, analyzed Q -Tof LC/MS, and aliquots were flash -frozen for storage at −80°C. […]
The peptide screen was performed in a similar way as the 14-3-3ζ titration in the precence of compound.
14-3-3ζ was titrated in a 2-fold dilution series (starting at 400 µM 14-3-3ζ) to 100 nM of fluorescein-labeled peptides and 250 µM compound 18 (1% DMSO) in FA buffer (10 mM HEPES pH 7.4, 150 mM […]
Data shown is the average of a scientific triplicate.
Differential Scanning Fluorimetry (DSF)
DSF was performed using 40 µl samples containing 2.5 µM 14 -3-3ζ, 25 µM Tau peptide (Tau pS2, Tau pS214 or Tau pS324), […] (1% DMSO) and 5x ProteoOrange (Lumiprobe, 5000x stock in DMSO) in 10 mM HEPES, 150 mM NaCl, 50 µM TCEP (pH 7.4). The samples were heated from 35 °C to 79°C at a rate of 0.3 °C per 15 s in a C FX96 Touch Real-Time PCR Detection System (Bio -Rad). Fluorescence intensity was determined using excitation ( λem=525/20 nm) and emission ( λex=570/20 nm) filters.
Based on these melting curves, the negative derivative melting curve is obtained from which the melting temperature Tm was determined. All described melting temperatures are based on two or three independent experiments, from which the average and standard deviations were determined.
X-ray crystallography data collection and refinement
For x-ray crystallography, a C-terminally truncated 14-3-3σ protein (truncated after T231 to reduce flexibility) was used. This 14-3-3σ∆C was preincubated with Tau pS214 in complexation buffer (20 mM HEPES pH 7.5, 2 mM MgCl2 and 100 μM TCEP) in a 1:1.5 molar stoichiometry (protein:peptide) at a final protein concentration of 10.0 mg/mL. […]

| SMILES | ΔTm [°C] |
| --- | --- |
| N#Cc1ccc(-c2nccn2-c2ccc(C=O)c(Br)c2)cc1 [Compound 22] | 0.9 to 2.1 |
| O=Cc1ccc(-n2ccnc2-c2ccc(Cl)cc2)cc1Br [Compound 14] | 0.9 to 2.1 |
| O=Cc1ccc(-n2ccnc2-c2ccccc2)cc1Br [Compound 1] | 0.9 to 2.1 |

Continued, values first:

| ΔTm [°C] | SMILES |
| --- | --- |
| 0.9 to 2.1 | O=Cc1ccc(-n2ccnc2-c2ccc(F)cc2)cc1Br [Compound 13] |
| 0.9 to 2.1 | O=Cc1ccc(-n2ccnc2-c2ccc(C(F)(F)F)cc2)cc1Br [Compound 20] |
| 0.9 to 2.1 | O=Cc1ccc(-n2ccnc2-c2ccc(OC(F)(F)F)cc2)cc1Br [Compound 21] |
| 0.9 to 2.1 | Cc1ccc(-c2nccn2-c2ccc(C=O)c(Br)c2)cc1 [Compound 11] |
